Assay results as given in ChEMBL document CHEMBL1208702, “Use of 2-[(18)F]fluoroethylazide for the Staudinger ligation - Preparation and characterisation of GABA(A) receptor binding 4-quinolones” (Bioorg Med Chem Lett, 2010).
pKi: −log10 of the molar value.

Experiment: Displacement of [3H]Ro151788 from GABA-A receptor in Wistar rat cerebellar membrane after 1 hr by liquid scintillation counting
Assay type: cell membranes, Cerebellum

| SMILES | pKi |
| --- | --- |
| O=C(NCCF)c1c[nH]c2ccc(Cc3ccccc3)cc2c1=O | 9.15 |
| O=C(NCCCF)c1c[nH]c2ccc(Cc3ccccc3)cc2c1=O | 9.89 |
